Data as given in patent publication US11413278B2, “Compounds and methods for promoting stress resistance” (priority 2015, dated 2022).
Where two headings read alike, the source gives them in different places.

What was measured:
FOXO3 = FOXO3 siRNA knockdown: dependency for H2O2-resistance; type: cell-based, human
Experimental: For qPCR analysis, WI-38 cells were treated with small molecules (at 10 μM) (biological quadruplicates) for 24 hrs and processed for RNA isolation and reverse transcription (RT) with the Cells-to-Ct Kit (Life Technologies), following manufacturer's instructions. RT products were diluted with H2O and used for qPCR analysis on an ABI 7300 system (Life Technologies) (technical triplicates). Relative expression levels of target genes were normalized to the genes B2M, PPIA and GAPDH. To knock down the expression of FOXO3 or NRF2, WI-38 cells were transfected, using the RNAiMAX reagents (Life Technologies), with siRNA oligos (at 10 nM final concentration, 10 ml culture medium) for FOXO3 (Life Technologies) or NRF2 (Integrated DNA Technologies) on 10-cm petri dishes for 36 hrs, and then detached and aliquoted onto 96-well (for qPCR analysis) or 384-well plates (for H2O2-stress treatment). ˜24 hrs later, small molecules were introduced and incubated with cells for 24 hrs. Cells were then either processed with the Cells-to-Ct Kit to prepare RT products for qPCR analysis or subjected to H2O2 (700 μM) for 3 hrs and assayed for viability. The knockdown efficiency of FOXO3 or NRF2 was checked at 36 hrs post-transfection and at the end as well. […]
Applicants used siRNA to knock down FOXO3 expression by ˜70% in an attempt to identify whether the activation of these genes depends on activity of FOXO3 and/or NRF2. […] We used siRNA to knock down FOXO3 expression by ˜60% to 70% (FIG. 3; see data in Table 6). […] (Given the caveat that FOXO3 was not fully knocked down, partial dependency was scored when the H2O2-resistance capacity was reduced by at least 25% but less than 50% upon siRNA knockdown). At least for Gr-7A and Gr-7C, which are structurally related, the observed FOXO3-dependency for H2O2-resistance is consistent with their strong effects to induce FOXO3 target genes (Tables 1a-1f, Table 6, & Table 15), including SOD2 and GADD45A.

WI-38 cells [1] = conditions: for Assay 1: H2O2-resistant: YES/NO, if NO, possibly due to repeated freezing/thawing of stocks; for No H2O2 stress treatment, at 10 uM (fold change): normalized ATP measurement
WI-38 cells [2] = test: Long-term effects on cell viability (5 days, ATP; morphology, PI imaging); type: cell-based; conditions: 10 μM; for Luminescence signal for ATP measurement, day-1 Average / Luminescence signal for ATP measurement, day-2 Average / Luminescence signal for ATP measurement, day-3 Average / Luminescence signal for ATP measurement, day-4 Average / Luminescence signal for ATP measurement, day-5 Average / viability at 10 µM: Batch 1; for Luminescence signal for ATP measurement, day-1 Average / Luminescence signal for ATP measurement, day-2 Average / Luminescence signal for ATP measurement, day-3 Average / Luminescence signal for ATP measurement, day-4 Average / Luminescence signal for ATP measurement, day-5 Average: n = 6, day-0 luminescence = 320956 ± 24708; for viability at 10 µM: Homo sapiens, WI-38, 120 h, DMSO ctrl = 100.0%, read-out: ATP luminescence by day-5 normalized; for Luminescence signal for ATP measurement, day-5 Average / viability at 10 µM: day-5; for O = Potential toxicity / Q = Potential toxicity: human, 5 days;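 for Luminescence signal for ATP measurement, day-2 Average: compounds at 10 µM with ATP read daily over 5 days of treatment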;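 for Luminescence signal for ATP measurement, day-3 Average: compounds at 10 µM with ATP read daily over 5 days of treatment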;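 for Luminescence signal for ATP measurement, day-4 Average: compounds at 10 µM with ATP read daily over 5 days of treatment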;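 for Luminescence signal for ATP measurement, day-5 Average: compounds at 10 µM with ATP read daily over 5 days of treatment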
[3] = test system: phosphorylated γH2A.X and TP53BP1; test: DNA damage marker analysis (immuno-staining); conditions: for activity at 10 µM: Homo sapiens, WI-38, 24 h
How it was run: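 WI-38 cells were cultured 24 h, then treated with compounds for 24 h; H2O2 (700 μM, 3 h) and doxorubicin (300 nM, 24 h) served as DNA-damage controls. After fixation, cells were immunostained for phospho-γH2A.X (Ser-139) and phospho-TP53BP1 (Ser-1778), counterstained with DAPI, and imaged by automated high-content microscopy.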

C. elegans = C. elegans lifespan assays (liquid and plate); type: in vivo, Caenorhabditis elegans; conditions: for ILS at 60 µM / ILS at 66 µM: Caenorhabditis elegans; for O = Life span- extending scores in worms: score scale 0 to 2, 4 to 6 independent trials; for M = Lifespan-extending scores in worms: summary score
[4] = WI-38 cells, 10 μM, (*) = compromised ability to protect cells from H2O2, could be due to stability issue
[5] = asterisks indicate the loss of the ability to protect cells from H2O2 over time
[6] = derived from dose response curves, 0.6-20 uM, H2O2-resistance of WI-38 cells
[7] = read-out: Est. ED50, dose response 0.6-20 μM, H2O2-resistance
[8] = read-out: Experiment 1, H2A.X-P DNA damage foci staining (no H2O2 stress treatment), at 10 uM
[9] = read-out: Experiment 2, H2A.X-P DNA damage foci staining (no H2O2 stress treatment), at 10 uM
[10] = read-out: Experiment 2, H2A.X-P DNA damage foci staining (under H2O2 stress treatment), at 10 uM
[11] = read-out: Experiment 2, TP53BP1-P DNA damage foci staining (no H2O2 stress treatment), at 10 uM
[12] = in liquid, wild type, with FuDR, 1.0 × 10^9 bacteria/ml, read-out: relative change of mean lifespan vs control, Trial 1
[13] = in liquid, wild type, with FuDR, 2.5 × 10^9 bacteria/ml, read-out: relative change of mean lifespan vs control, Trial 2
[14] = on plate, CF512 temperature-sensitive sterile animals, without FuDR, 2.0 × 10^10 bacteria/ml, read-out: relative change of mean lifespan vs control, Trial 3
[15] = Assay 2(z), 1.0 × 10^9 bacteria/ml, wild type + FuDR (2012 July), read-out: Lifespan assay in liquid
[16] = Assay 3(aa), 2.5 × 10^9 bacteria/ml, wild type + FuDR, read-out: Lifespan assay in liquid
[17] = Assay 4(ab), 2.0 × 10^10 bacteria/ml, CF512 worms, no FuDR, read-out: Lifespan assay on plates
[18] = read-out: Experiment 2, TP53BP1-P DNA damage foci staining (under H2O2 stress treatment), at 10 uM

O=C(Nc1ccc(Cl)c(Cl)c1)c1ccc([N+](=O)[O-])o1 [Gr-1G]
I = FOXO3-dependency for H2O2-resistance (FOXO3; score): 0 | I = FOXO3-dependency for H2O2-resistance (FOXO3; summary score): 0 | H2O2-resistant (WI-38 cells [1]; [4]): YES | Assay 1: H2O2-resistant (WI-38 cells [1]): YES | H2O2-resistant (WI-38 cells [1]; [5]): YES | EC50 (WI-38 cells [1]; [6]): 4.8 µM | EC50 (WI-38 cells [1]; [7]): 2.95 µM | Luminescence signal for ATP measurement, day-1 Average (WI-38 cells [2]): 449436 | Luminescence signal for ATP measurement, day-2 Average (WI-38 cells [2]): 530748 | Luminescence signal for ATP measurement, day-3 Average (WI-38 cells [2]): 651695 | Luminescence signal for ATP measurement, day-4 Average (WI-38 cells [2]): 866631 | Luminescence signal for ATP measurement, day-5 Average (WI-38 cells [2]): 955703 | viability at 10 µM (WI-38 cells [2]): 93.1% | O = Potential toxicity (WI-38 cells [2]): 1 | Q = Potential toxicity (WI-38 cells [2]): 0 | activity at 10 µM [3, 8]: 150% | activity at 10 µM [3, 9]: 179% | activity at 10 µM [3, 10]: 63.3% | activity at 10 µM [3, 11]: 256% | P = Potential DNA-damaging ([3]; human, 24 h): 0 | R = Potential DNA damaging ([3]; human, 24 h): 0 | ILS at 60 µM (C. elegans; [12]): 1.3% | ILS at 60 µM (C. elegans; [13]): 10.2% | ILS at 60 µM (C. elegans; on plate, CF512 temperature-sensitive sterile animals, without FuDR, 1.0 × 10^11 bacteria/ml, read-out: relative change of mean lifespan vs control, Trial 4): 5.8% | ILS at 60 µM (C. elegans; [14]): 24.7% | ILS at 66 µM (C. elegans; [15]): 1.3% | ILS at 66 µM (C. elegans; [16]): 10.2% | ILS at 66 µM (C. elegans; [17]): 24.7% | ILS at 66 µM (C. elegans; Assay 5(ac), 1.0 × 10^11 bacteria/ml, CF512 worms, no FuDR, read-out: Lifespan assay on plates): 5.8% | O = Life span- extending scores in worms (C. elegans): 1 (1 for lifespan extension observed in 2 trials) | M = Lifespan-extending scores in worms (C. elegans): 1 (1 for lifespan extension observed in 2 trials)

CC1C(=O)C(C)C(c2cc(Cl)ccc2O)NC1c1cc(Cl)ccc1O (stereo not shown) [O6]
I = FOXO3-dependency for H2O2-resistance (FOXO3; score): 0 | I = FOXO3-dependency for H2O2-resistance (FOXO3; summary score): 0 | H2O2-resistant (WI-38 cells [1]; [4]): YES | No H2O2 stress treatment, at 10 uM (fold change) (WI-38 cells [1]; WI-38 cells): 1.07 fold change | Assay 1: H2O2-resistant (WI-38 cells [1]): YES | H2O2-resistant (WI-38 cells [1]; [5]): YES | EC50 (WI-38 cells [1]; [6]): 9.8 µM | EC50 (WI-38 cells [1]; [7]): 9.8 µM | O = Potential toxicity (WI-38 cells [2]): 0 | Q = Potential toxicity (WI-38 cells [2]): 0 | activity at 10 µM [3, 8]: 122% | activity at 10 µM [3, 9]: 87.7% | activity at 10 µM [3, 10]: 130% | activity at 10 µM [3, 11]: 86.3% | activity at 10 µM [3, 18]: 538% | P = Potential DNA-damaging ([3]; human, 24 h): 0 | R = Potential DNA damaging ([3]; human, 24 h): 0 | ILS at 60 µM (C. elegans; [12]): 28.3% | ILS at 60 µM (C. elegans; [13]): 10.3% | ILS at 60 µM (C. elegans; [14]): 3.9% | ILS at 66 µM (C. elegans; [15]): 28.3% | ILS at 66 µM (C. elegans; [16]): 10.3% | ILS at 66 µM (C. elegans; [17]): 3.9% | O = Life span- extending scores in worms (C. elegans): 1 (1 for lifespan extension observed in 2 trials) | M = Lifespan-extending scores in worms (C. elegans): 1 (1 for lifespan extension observed in 2 trials)

COc1ccc(C(=O)/C=C/c2ccccc2Br)c(OC)c1 [Gr-4B]
I = FOXO3-dependency for H2O2-resistance (FOXO3; score): 0 | I = FOXO3-dependency for H2O2-resistance (FOXO3; summary score): 0 | H2O2-resistant (WI-38 cells [1]; [4]): YES | No H2O2 stress treatment, at 10 uM (fold change) (WI-38 cells [1]; WI-38 cells): 1.18 fold change | Assay 1: H2O2-resistant (WI-38 cells [1]): YES | H2O2-resistant (WI-38 cells [1]; [5]): YES | EC50 (WI-38 cells [1]; [6]): 8.9 µM | EC50 (WI-38 cells [1]; [7]): 5.33 µM | O = Potential toxicity (WI-38 cells [2]): 0 | Q = Potential toxicity (WI-38 cells [2]): 0 | activity at 10 µM [3, 8]: 116% | activity at 10 µM [3, 9]: 140% | activity at 10 µM [3, 10]: 150% | activity at 10 µM [3, 11]: 118% | activity at 10 µM [3, 18]: 435% | R = Potential DNA damaging ([3]; negative point, cultured human cells): 0 | P = Potential DNA-damaging ([3]; summary score): 0 | ILS at 60 µM (C. elegans; [12]): 8.1% | ILS at 60 µM (C. elegans; [13]): 14.5% | ILS at 60 µM (C. elegans; [14]): 10.7% | ILS at 66 µM (C. elegans; [15]): 8.1% | ILS at 66 µM (C. elegans; [16]): 14.5% | ILS at 66 µM (C. elegans; [17]): 10.7% | O = Life span- extending scores in worms (C. elegans): 1 (1 for lifespan extension observed in 2 trials) | M = Lifespan-extending scores in worms (C. elegans): 1 (1 for lifespan extension observed in 2 trials)

O=C(Nc1nc(C23CC4CC(CC(C4)C2)C3)cs1)C(c1ccccc1)c1ccccc1 [O10]
I = FOXO3-dependency for H2O2-resistance (FOXO3; score): 0 | I = FOXO3-dependency for H2O2-resistance (FOXO3; summary score): 0 | H2O2-resistant (WI-38 cells [1]; [4]): YES | No H2O2 stress treatment, at 10 uM (fold change) (WI-38 cells [1]; WI-38 cells): 1.08 fold change | Assay 1: H2O2-resistant (WI-38 cells [1]): YES | H2O2-resistant (WI-38 cells [1]; [5]): YES | EC50 (WI-38 cells [1]; [6]): 9.5 µM | EC50 (WI-38 cells [1]; [7]): 9.5 µM | Luminescence signal for ATP measurement, day-1 Average (WI-38 cells [2]): 560153 | Luminescence signal for ATP measurement, day-2 Average (WI-38 cells [2]): 740923 | Luminescence signal for ATP measurement, day-3 Average (WI-38 cells [2]): 847945 | Luminescence signal for ATP measurement, day-4 Average (WI-38 cells [2]): 1079863 | Luminescence signal for ATP measurement, day-5 Average (WI-38 cells [2]): 1066130 | viability at 10 µM (WI-38 cells [2]): 104% | O = Potential toxicity (WI-38 cells [2]): 0 | Q = Potential toxicity (WI-38 cells [2]): 0 | activity at 10 µM [3, 8]: 102% | activity at 10 µM [3, 9]: 71.5% | activity at 10 µM [3, 10]: 153% | activity at 10 µM [3, 11]: 135% | activity at 10 µM [3, 18]: 498% | P = Potential DNA-damaging ([3]; human, 24 h): 0 | R = Potential DNA damaging ([3]; human, 24 h): 0 | ILS at 60 µM (C. elegans; [12]): 5.9% | ILS at 60 µM (C. elegans; [13]): -6.2% | ILS at 60 µM (C. elegans; [14]): 9.5% | ILS at 66 µM (C. elegans; [15]): 5.9% | ILS at 66 µM (C. elegans; [16]): -6.2% | ILS at 66 µM (C. elegans; [17]): 9.5% | O = Life span- extending scores in worms (C. elegans): 0 | M = Lifespan-extending scores in worms (C. elegans): 0
